Measured values: paper PMC7248707 (Molecules, 2020)

Key:
[1] = target: rat MOR; parameters: method as in PMID 2537427; details: rat brain tissue; cited from earlier work
[2] = cited from earlier work
[3] = target: T1, human MOR (Homo sapiens, UniProt P35372)
[4] = target: T1, human MOR; remark: listed apart in the source
[5] = system: MOR; details: read-out: IC50 in the GPI bioassay; cited from earlier work

T1 sequence (P35372 whole entry): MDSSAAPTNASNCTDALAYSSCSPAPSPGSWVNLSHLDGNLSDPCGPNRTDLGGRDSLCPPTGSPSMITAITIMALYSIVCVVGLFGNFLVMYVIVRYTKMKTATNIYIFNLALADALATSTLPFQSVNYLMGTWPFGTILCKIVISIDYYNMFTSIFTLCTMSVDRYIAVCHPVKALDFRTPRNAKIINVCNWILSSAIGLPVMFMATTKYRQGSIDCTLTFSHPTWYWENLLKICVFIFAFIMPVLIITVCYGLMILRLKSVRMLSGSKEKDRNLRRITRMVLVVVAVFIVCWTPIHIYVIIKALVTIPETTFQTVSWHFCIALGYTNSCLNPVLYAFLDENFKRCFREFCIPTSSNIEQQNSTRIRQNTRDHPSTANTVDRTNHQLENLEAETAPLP

Compound	Ki [1]	BBB crossing / CNS entry [2]	enhanced MOR agonist potency versus [Dmt^1]DALDA [3]	EC50 ([3]; read-out: Agonist Activity EC50)	better MOR affinity than DAMGO ([4]; relative to DAMGO)	increase in MOR affinity versus [Dmt^1]DALDA ([4]; relative to [Dmt^1]DALDA)	IC50 [5]
NCCCC[C@H](NC(=O)[C@H](Cc1ccccc1)NC(=O)[C@@H](CCCN=C(N)N)NC(=O)[C@@H](N)Cc1ccc(O)cc1)C(N)=O [DALDA, H-Tyr-D-Arg-Phe-Lys-NH2]	1.69 nM	does not cross the BBB	–	–	–	–	–
Cc1cc(O)cc(C)c1C[C@H](N)C(=O)N[C@H](CCCNC(=N)N)C(=O)N[C@H]1Cc2ccccc2CN(CCC(N)=O)C1=O [KGOP01]	–	can enter the CNS	5 fold	0.1 ± 0.02 nM	13 fold	ca. 2 fold	0.8 nM
